# Active and inactive are the calls of the source. The calls are words filed in the database; no cut-off is given here.
# Tests used:
# [1] = species on record: Mus musculus; assay: Acute antinociceptive activity in male C57BL/6J mouse measured after 30 min by 55 degreeC warm-water tail-withdrawal assay; details: 0.5 h
# [2] = tested on: Mus musculus; assay: Antinociceptive activity in male C57BL/6J mouse preadministered with compound for 10 mins followed by acetic acid administration and measured after 15 to 30 min by Acetic acid stretching assay (AcAS); type: functional; details: time 25-40 min
# [3] = Selectivity ratio of ED50 for antinociceptive activity in male C57BL/6J mouse at 10 mg/kg, ip measured after 10 min by 55 degreeC warm-water tail-withdrawal assay to ED50 for antinociceptive activity in male C57BL/6J mouse preadministered with compound for 10 mins followed by acetic acid administration and measured after 15 to 30 min by Acetic acid stretching assay (AcAS); type: functional
# [4] = target: Mu-type opioid receptor (Rattus norvegicus, UniProt P33535); assay: Displacement of [3H]-DAMGO from rat cortical membrane MOR assessed as inhibition constant incubated for 2 hrs by Wallac Betaplate liquid scintillation counting analysis; type: cell membranes, Cortex
# [5] = target: Kappa-type opioid receptor (Cavia porcellus, UniProt P41144); assay: Displacement of [3H]U69593 from guinea pig KOR assessed as inhibition constant incubated for 2 hrs by Wallac Betaplate liquid scintillation counting analysis
# [6] = target: Delta-type opioid receptor (Rattus norvegicus, UniProt P33533); assay: Displacement of [3H]-DPDPE from rat cortical membrane DOR assessed as inhibition constant incubated for 2.5 hrs by Wallac Betaplate liquid scintillation counting analysis; type: cell membranes, Cortex
# [7] = tested on: Mus musculus; assay: Antinociceptive activity in male C57BL/6J mouse at 10 nmol, ICV administered for 8 hrs by 55 degreeC warm-water tail-withdrawal assay; type: functional, organism-based
# [8] = tested on: Mus musculus; assay: Antinociceptive activity in male C57BL/6J mouse at 10 mg/kg, ip measured after 10 min by 55 degreeC warm-water tail-withdrawal assay; type: functional, organism-based
# [9] = tested on: Mus musculus; assay: Antinociceptive activity in KOR knockout male C57BL/6J mouse model at 10 nmol, ICV administered for 10 mins by 55 degreeC warm-water tail-withdrawal assay; type: functional, organism-based
# [10] = tested on: Mus musculus; assay: Antinociceptive activity in MOR knockout male C57BL/6J mouse model at 10 nmol, ICV administered for 10 mins by 55 degreeC warm-water tail-withdrawal assay; type: functional, organism-based
# [11] = target: Mu-type opioid receptor (Rattus norvegicus) (UniProt P33535); assay: Partial agonist activity at rat MOR extracted from CHO cell membrane assessed as stimulation of [35S]GTPgammaS binding at 1 to 10 uM incubated for 60 mins by liquid scintillation counting assay; type: functional, cell membranes; details: dose 1-10 µM
# [12] = target: Delta-type opioid receptor (Mus musculus) (UniProt P32300); assay: Agonist activity at mouse DOR extracted from CHO cell membrane assessed as stimulation of [35S]GTPgammaS binding at 1 to 10 uM incubated for 60 mins by liquid scintillation counting assay; type: functional, cell membranes; details: filed as agonist, dose 1-10 µM
# [13] = tested on: Mus musculus; assay: Antinociceptive activity in wild type male C57BL/6J mouse model at 10 nmol, ICV preadministered with naltrindole for 20 mins followed by compound administration for 10 mins; type: functional, organism-based
# [14] = target: Kappa-type opioid receptor (Homo sapiens) (UniProt P41145); assay: Partial agonist activity at human KOR extracted from CHO cell membrane assessed as stimulation of [35S]GTPgammaS binding at 1 to 10 uM incubated for 60 mins by liquid scintillation counting assay; type: functional, cell membranes; details: filed as partial agonist, dose 1-10 µM
# [15] = Toxicity in male C57BL/6J mouse assessed as lethality up to 30 mg/kg, ip measured after 10 min; type: organism-based; details: in vivo
# [16] = target: Delta-type opioid receptor (Mus musculus) (UniProt P32300); assay: Partial agonist activity at mouse DOR extracted from CHO cell membrane assessed as stimulation of [35S]GTPgammaS binding at 1 to 10 uM incubated for 60 mins by liquid scintillation counting assay; type: functional, cell membranes; details: filed as partial agonist, dose 1-10 µM
# [17] = Toxicity in C57BL/6J mouse assessed as increase in ambulation at 15 mg/kg, ip measured up to 120 min; type: organism-based; details: in vivo, 2 h
# [18] = tested on: Mus musculus; assay: Antinociceptive activity in male C57BL/6J mouse assessed as peripheral restriction at 15 mg/kg, ip pre-treated with naloxone methiodide at 30 nmol, ICV for 30 min by 55 degreeC warm-water tail-withdrawal assay; type: functional
# [19] = Toxicity in C57BL/6J mouse assessed as effect on locomotor activity at 15 mg/kg, ip measured up to 120 min; type: organism-based; details: in vivo, 2 h
# [20] = species on record: Mus musculus; assay: Antinociceptive activity in male C57BL/6J mouse measured after 10 min by 55 degreeC warm-water tail-withdrawal assay; type: functional
# [21] = Toxicity in C57BL/6J mouse assessed as respiratory depression at 15 mg/kg, ip measured after 20 mins; type: organism-based; details: in vivo
# [22] = tested on: Mus musculus; assay: Antinociceptive activity in male C57BL/6J mouse assessed as peripheral restriction at 15 mg/kg, ip by 55 degreeC warm-water tail-withdrawal assay; type: functional
# [23] = tested on: Mus musculus; assay: Antinociceptive activity in male C57BL/6J mouse assessed as peripheral restriction at 15 mg/kg, ip pre-treated with naloxone methiodide at 30 mg/kg, SC for 30 min by 55 degreeC warm-water tail-withdrawal assay; type: functional
# [24] = tested on: Mus musculus; assay: Antinociceptive activity in male C57BL/6J mouse at 15 mg/kg, po by 55 degreeC warm-water tail-withdrawal assay; type: functional, organism-based; details: time <= 60.0 min
# [25] = target: Mu-type opioid receptor (Rattus norvegicus) (UniProt P33535); assay: Partial agonist activity at rat MOR extracted from CHO cell membrane assessed as stimulation of [35S]GTPgammaS binding at 10 uM incubated for 60 mins by liquid scintillation counting assay; type: functional, cell membranes; details: filed as partial agonist
# [26] = Toxicity in C57BL/6J mouse assessed as effect on locomotor activity at 30 mg/kg, ip measured up to 120 min; type: organism-based; details: in vivo, 2 h
# [27] = tested on: Mus musculus; assay: Antinociceptive activity in male C57BL/6J mouse assessed as peripheral restriction at 30 mg/kg, ip by 55 degreeC warm-water tail-withdrawal assay; type: functional
# [28] = tested on: Mus musculus; assay: Antinociceptive activity in male C57BL/6J mouse assessed as peripheral restriction at 30 mg/kg, ip pre-treated with naloxone methiodide at 30 nmol, ICV for 30 min by 55 degreeC warm-water tail-withdrawal assay; type: functional
# [29] = tested on: Mus musculus; assay: Antinociceptive activity in male C57BL/6J mouse at 30 mg/kg, po by 55 degreeC warm-water tail-withdrawal assay; type: functional, organism-based; details: time <= 60.0 min
# [30] = Toxicity in C57BL/6J mouse assessed as respiratory depression at 30 mg/kg, ip measured after 20 mins; type: organism-based; details: in vivo
# [31] = tested on: Mus musculus; assay: Antinociceptive activity in male C57BL/6J mouse assessed as peripheral restriction at 30 mg/kg, ip pre-treated with naloxone methiodide at 30 mg/kg, SC for 30 min by 55 degreeC warm-water tail-withdrawal assay; type: functional
# [32] = Toxicity in C57BL/6J mouse assessed as increase in ambulation at 30 mg/kg, ip measured up to 120 min; type: organism-based; details: in vivo, 2 h
# Sequence of Delta-type opioid receptor (P33533 whole entry): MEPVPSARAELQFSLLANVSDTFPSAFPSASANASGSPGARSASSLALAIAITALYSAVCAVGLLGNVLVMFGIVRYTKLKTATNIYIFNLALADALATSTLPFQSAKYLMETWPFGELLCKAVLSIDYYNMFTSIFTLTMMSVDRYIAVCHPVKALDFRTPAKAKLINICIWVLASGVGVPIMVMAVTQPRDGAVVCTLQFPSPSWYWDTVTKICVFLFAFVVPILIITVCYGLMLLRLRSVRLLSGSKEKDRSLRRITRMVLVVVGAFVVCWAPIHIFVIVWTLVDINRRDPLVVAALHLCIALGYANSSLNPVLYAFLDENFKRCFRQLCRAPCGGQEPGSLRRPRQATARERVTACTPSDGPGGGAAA
# Sequence of Delta-type opioid receptor (Mus musculus) (P32300 whole entry): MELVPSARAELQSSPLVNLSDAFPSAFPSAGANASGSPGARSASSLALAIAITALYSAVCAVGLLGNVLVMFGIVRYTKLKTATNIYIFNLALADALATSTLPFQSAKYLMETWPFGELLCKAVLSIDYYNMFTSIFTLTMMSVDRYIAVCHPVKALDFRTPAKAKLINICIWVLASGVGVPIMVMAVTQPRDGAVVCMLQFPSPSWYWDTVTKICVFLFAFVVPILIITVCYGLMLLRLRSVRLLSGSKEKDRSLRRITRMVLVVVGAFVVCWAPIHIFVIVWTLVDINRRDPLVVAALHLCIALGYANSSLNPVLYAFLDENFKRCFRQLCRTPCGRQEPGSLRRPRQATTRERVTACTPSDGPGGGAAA
# Sequence of Kappa-type opioid receptor (Homo sapiens) (P41145 whole entry): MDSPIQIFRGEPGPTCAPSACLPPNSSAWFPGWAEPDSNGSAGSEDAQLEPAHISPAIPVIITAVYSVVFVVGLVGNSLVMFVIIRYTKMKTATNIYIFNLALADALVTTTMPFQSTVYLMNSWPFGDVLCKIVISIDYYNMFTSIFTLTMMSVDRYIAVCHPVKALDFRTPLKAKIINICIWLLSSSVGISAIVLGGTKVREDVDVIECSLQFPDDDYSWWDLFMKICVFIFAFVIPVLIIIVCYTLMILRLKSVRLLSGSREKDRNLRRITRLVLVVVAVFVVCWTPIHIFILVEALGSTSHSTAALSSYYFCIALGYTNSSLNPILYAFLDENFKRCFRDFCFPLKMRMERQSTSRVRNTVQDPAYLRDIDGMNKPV
# Sequence of Kappa-type opioid receptor (P41144 whole entry): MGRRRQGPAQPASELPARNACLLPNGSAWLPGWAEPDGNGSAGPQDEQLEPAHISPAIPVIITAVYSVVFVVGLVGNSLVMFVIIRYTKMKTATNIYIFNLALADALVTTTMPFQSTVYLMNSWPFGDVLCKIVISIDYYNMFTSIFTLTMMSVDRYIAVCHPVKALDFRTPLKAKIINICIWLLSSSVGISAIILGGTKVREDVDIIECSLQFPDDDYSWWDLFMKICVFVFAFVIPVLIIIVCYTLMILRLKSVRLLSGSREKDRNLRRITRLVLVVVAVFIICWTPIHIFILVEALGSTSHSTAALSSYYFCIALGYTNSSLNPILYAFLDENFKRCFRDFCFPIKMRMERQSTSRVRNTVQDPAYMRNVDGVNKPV
# Sequence of Mu-type opioid receptor (Rattus norvegicus) (P33535 whole entry): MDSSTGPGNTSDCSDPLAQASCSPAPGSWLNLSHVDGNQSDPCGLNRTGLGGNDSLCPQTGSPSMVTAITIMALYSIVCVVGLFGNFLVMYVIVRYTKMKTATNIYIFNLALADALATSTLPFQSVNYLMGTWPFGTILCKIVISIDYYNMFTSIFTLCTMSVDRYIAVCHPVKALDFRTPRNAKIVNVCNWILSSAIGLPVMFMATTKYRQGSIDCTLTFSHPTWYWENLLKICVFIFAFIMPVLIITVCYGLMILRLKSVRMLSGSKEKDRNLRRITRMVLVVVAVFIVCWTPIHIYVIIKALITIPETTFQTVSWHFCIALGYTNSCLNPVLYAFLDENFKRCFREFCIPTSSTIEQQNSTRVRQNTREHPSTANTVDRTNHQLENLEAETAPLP
# Sequence of Mu-type opioid receptor (P33535 whole entry): as above
compound,measurement,setting,value
CN1CC[C@]23c4c5ccc(O)c4O[C@H]2[C@@H](O)C=C[C@H]3[C@H]1C5 [MORPHINE],ED50,[1],3.37 mg/kg
same,ED50,[2],0.9 mg/kg
same,Ratio ED50,[3],3.75
CC(C)C[C@H]1CN=C2C=C3N4CCC[C@H]4CN3[C@@H](Cc3ccc(O)cc3)CN21,Ki,[4],169 nM
same,Ki,[5],40 nM
same,Ki,[6],10 nM
CC(C)[C@H]1CN=C2C=C3N4C[C@H](O)C[C@H]4CN3[C@@H](Cc3ccc(O)cc3)CN21,Ki,[4],254 nM
same,Ki,[5],16 nM
same,Ki,[6],34 nM
CC(C)C[C@H]1CN2C(=CC3=NC[C@H](CN(C)C)N3C[C@@H]2Cc2ccc(O)cc2)N1CCc1ccccc1,Activity,[7],"Active; Comparable To Morphine And U50,490"
same,Ki,[4],100 nM
same,Activity,[8],Active; Minimal Antinociception Observed
same,Activity,[9],inactive
same,Ki,[5],47 nM
same,Activity,[10],inactive
same,Activity,[11],Not active; No Significant Activity
same,Activity,[12],Active
same,Activity,[13],inactive
same,Activity,[14],Active
same,Activity,[15],Toxic
same,Ki,[6],5 nM
CC(C)C[C@H]1CN=C2C=C3N(CCN4CCOCC4)[C@@H](Cc4ccc(O)cc4)CN3[C@@H](Cc3ccc(O)cc3)CN21,Ki,[4],108 nM
same,Ki,[5],20 nM
same,Ki,[6],42 nM
CC(C)(C)c1ccc(S(=O)(=O)NCCN2C(=N)N([C@@H](CCCNC(=N)N)CN3C(=N)NC[C@@H]3CCCNC(=N)N)C[C@@H]2CCCNC(=N)N)cc1,Ki,[4],340 nM
same,Ki,[5],93 nM
same,Ki,[6],7 nM
CC(C)(C)c1ccc(S(=O)(=O)NCCN2C(=N)N([C@@H](Cc3ccc(O)cc3)CN3C(=N)NC[C@@H]3CCCNC(=N)N)C[C@@H]2CCCNC(=N)N)cc1,Ki,[4],458 nM
same,Ki,[5],49 nM
same,Ki,[6],84 nM
CC(C)C[C@H]1CN2C(=CC3=NC[C@H](CC(C)C)N3C[C@@H]2Cc2ccc(O)cc2)N1CCN1CCOCC1,Ki,[4],157 nM
same,Ki,[5],15 nM
same,Ki,[6],16 nM
CC(C)C[C@H]1CN([C@@H](Cc2ccc(O)cc2)CN2C(=N)NC[C@@H]2CCCNC(=N)N)C(=N)N1CCNS(=O)(=O)c1ccc(C(C)(C)C)cc1,Ki,[4],120 nM
same,Ki,[5],48 nM
same,Ki,[6],1 nM
CC(C)[C@H]1CN=C2C=C3N(CCc4ccccc4)[C@@H](CN(C)C)CN3[C@@H](Cc3ccc(O)cc3)CN21,Ki,[4],26 nM
same,Ki,[5],37 nM
same,Ki,[6],4 nM
CC(C)C[C@H]1CN2C(=CC3=NC[C@H](CCN(C)C)N3C[C@@H]2Cc2ccc(O)cc2)N1CCc1ccccc1,Activity,[7],"Active; Comparable To Morphine And U50,488"
same,Ki,[4],212 nM
same,Activity,[16],Active; Weak Partial Agonism Observed
same,Activity,[9],inactive
same,Activity,[17],Non-toxic
same,ED50,[2],0.2 mg/kg
same,Ki,[5],24 nM
same,Ratio ED50,[3],10.73
same,Activity,[10],inactive
same,Activity,[18],42%
same,Activity,[19],Non-toxic
same,ED50,[20],2.19 mg/kg
same,Activity,[11],Not active; No Significant Activity
same,Activity,[13],inactive
same,Activity,[21],Non-toxic
same,Activity,[22],96.3%
same,Activity,[23],1.2%
same,Activity,[24],Time-dependent-effect
same,Ki,[6],5 nM
CN1CCN(CCN2C(=N)N([C@@H](CCCNC(=N)N)CN3C(=N)NC[C@@H]3Cc3ccc(O)cc3)C[C@@H]2Cc2ccc(O)cc2)CC1,Activity,[7],"Active; Comparable To Morphine And U50,491"
same,Ki,[4],197 nM
same,Activity,[16],Active; Weak Partial Agonism Observed
same,Activity,[9],inactive
same,Activity,[17],Non-toxic
same,ED50,[2],4.97 mg/kg
same,Ki,[5],87 nM
same,Ratio ED50,[3],0.78
same,Activity,[10],inactive
same,Activity,[18],10.1%
same,Activity,[19],Non-toxic
same,ED50,[20],3.9 mg/kg
same,Activity,[25],Active
same,Activity,[13],inactive
same,Activity,[14],Active
same,Activity,[21],Non-toxic
same,Activity,[22],89.7%
same,Activity,[23],2.5%
same,Activity,[24],Time-dependent-effect
same,Ki,[6],40 nM
CC(C)[C@H]1CN=C2C=C3N(CCc4ccccc4)CC[C@H](N(C)C)CN3[C@@H](Cc3ccc(O)cc3)CN21,Activity,[7],"Active; Comparable To Morphine And U50,489"
same,Ki,[4],430 nM
same,Activity,[26],Non-toxic
same,Activity,[16],Active; Weak Partial Agonism Observed
same,Activity,[9],inactive
same,Activity,[27],87.9%
same,ED50,[2],0.67 mg/kg
same,Ki,[5],25 nM
same,Ratio ED50,[3],20.95
same,Activity,[28],59.1%
same,Activity,[10],inactive
same,ED50,[20],14 mg/kg
same,Activity,[29],Time-dependent-effect
same,Activity,[11],Not active; No Significant Activity
same,Activity,[13],inactive
same,Activity,[14],Active
same,Activity,[30],Non-toxic
same,Activity,[31],3.5%
same,Activity,[32],Non-toxic
same,Ki,[6],20 nM
CC(C)C[C@H]1CN2C(=CC3=NC[C@@H](C(C)C)N3C[C@H]2Cc2ccc(O)cc2)N1CCc1ccccc1,Ki,[5],43 nM
same,Ki,[6],1 nM
CC(C)[C@H]1CN=C2C=C3N(CCN4CCOCC4)[C@@H](Cc4ccc(O)cc4)CN3[C@@H](Cc3ccc(O)cc3)CN21,Ki,[4],51 nM
same,Ki,[5],41 nM
same,Ki,[6],11 nM
CC(C)[C@H]1CN=C2C=C3N(CCc4ccccc4)[C@@H](CCN(C)C)CN3[C@@H](Cc3ccc(O)cc3)CN21,Ki,[4],34 nM
same,Ki,[5],20 nM
same,Ki,[6],8 nM
